Data from US6949571B2, “1,2-dihydropyridine compounds, process for preparation of the same and use thereof” (Eisai Co., Ltd., priority 2000, dated 2005).
Where two headings read alike, the source gives them in different places.

Tests used:
[1] = tested on: convulsions induced by AMPA; test: Anticonvulsant action induced by AMPA; format: in vivo, mice of ddy strain; conditions: 25 mg/kg orally, male ddy mice; AMPA continuously injected into lateral ventricle 30 minutes or 1 hour after
Description: A test compound was suspended in a 0.5% methyl cellulose solution or in sesame oil and was orally administered (25 mg/kg) to male mice of ddy strain. After 30 minutes or 1 hour from the oral administration, AMPA was continuously injected ([…]/5 μl/minute/mouse) into lateral ventricle to induce the convulsions. The effect was judged by a time-extending action until the convulsion takes place by a continuous injection of AMPA.

[2] = Table 1, primary culture of rat embryo cerebral cortex nerve cells, 2 μM AMPA, 1 μM MK-801
[3] = Table 2, suppression of AMPA-induced calcium influx into nerve cells
[4] = Table 3, primary culture of rat embryo cerebral cortex nerve cells, 2 μM AMPA, 1 μM MK-801
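Wherever IC50 is given: primary rat embryonic cortical neurons grown on an astrocyte layer in 96-well plates, used after at least 8 to 10 days in culture, Fura2-AM fluorescence ratio at 340/380 nm excitation.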

Description for AMPA receptor: Cerebral cortex was cut out from the brain of rat of gestational 18 days and treated with trypsin and DNase to disperse the cells. The cells were flown by MEM containing 10% of serum, sown in a culture bottle and astrocytes were proliferated. The astrocytes were re-dispersed by trypsin and sown in a 96-well plate. After incubation for one week, it was confirmed that the astrocytes covered all over the bottom and then the nerve cells of cerebral cortex which was dispersed by the above method were sown thereupon. After incubation for 24 hours, the medium was changed, the incubation was carried out for one week and, after that, the medium was changed to that containing 1 μM of MK-801. Nerve cells which were incubated for not shorter than 8 to 10 days were used.
Calcium influx into the cells was measured using Fura2-AM which was a calcium-sensitive fluorescent dye. It was treated in a medium containing Fura2-AM for 1 hour, incorporated into the cells, exchanged to a Tyrode solution containing 1 μM MK-801 and stimulation was carried out using 2 μM AMPA. Change in the amount of calcium flown into the cells were measured as the change in the fluorescent intensity at the exciting wave length of 340/380 nm.

| IC50 (AMPA receptor; [3]) [nM] | Compound | IC50 (AMPA receptor; [2]) [nM] | other results |
| --- | --- | --- | --- |
|  | O=c1c(-c2ccccc2Cl)cc(-c2ccccn2)cn1-c1ccccc1 [Example 57, 3-(2-Chlorophenyl)-5-(2-pyridyl)-1-phenyl-1,2-dihydropyridin-2-one] | 200 | anticonvulsant action (time-extending action until the convulsion takes place) [1]: significant anticonvulsant action |
|  | CN(C)c1cccc(-n2cc(-c3ccccn3)cc(-c3ccccc3C#N)c2=O)c1 [Example 12, 3-(2-Cyanophenyl)-5-(2-pyridyl)-1-(3-dimethylaminophenyl)-1,2-dihydropyridin-2-one] | 100 | anticonvulsant action (time-extending action until the convulsion takes place) [1]: significant anticonvulsant action |
|  | O=c1c(-c2cccnc2Cl)cc(-c2ccccn2)cn1-c1ccccc1 [Example 4, 3-(2-Chloro-3-pyridyl)-5-(2-pyridyl)-1-phenyl-1,2-dihydropyridin-2-one] | 100 | anticonvulsant action (time-extending action until the convulsion takes place) [1]: significant anticonvulsant action |
|  | N#Cc1ccccc1-c1cc(-c2ccccc2)cn(-c2cccnc2)c1=O [Example 47, 3-(2-Cyanophenyl)-5-phenyl-1-(3-pyridyl)-1,2-dihydropyridin-2-one] | 600 | anticonvulsant action (time-extending action until the convulsion takes place) [1]: significant anticonvulsant action |
|  | N#Cc1ccccc1-c1cc(-c2ccccn2)cn(-c2ccc(F)cc2)c1=O [Example 91, 3-(2-Cyanophenyl)-5-(2-pyridyl)-1-(4-fluorophenyl)-1,2-dihydropyridin-2-one] | 50 | anticonvulsant action (time-extending action until the convulsion takes place) [1]: significant anticonvulsant action |
|  | N#Cc1ncccc1-c1cc(-c2ccccn2)cn(-c2ccccc2)c1=O [Example 16, 3-(2-Cyano-3-pyridyl)-5-(2-pyridyl)-1-phenyl-1,2-dihydropyridin-2-one] | 100 | anticonvulsant action (time-extending action until the convulsion takes place) [1]: significant anticonvulsant action |
|  | N#Cc1ccccc1-c1cc(-c2ccccc2)cn(-c2ccccc2)c1=O [Example 41, 3-(2-Cyanophenyl)-1,5-diphenyl-1,2-dihydropyridin-2-one] | 80 | anticonvulsant action (time-extending action until the convulsion takes place) [1]: significant anticonvulsant action |
| 700 | O=c1c(-c2ccccc2O)cc(-c2ccccn2)cn1-c1ccccc1 [Example 141, 3-(2-Hydroxyphenyl)-5-(2-pyridyl)-1-phenyl-1,2-dihydropyridin-2-one] |  |  |
|  | COC(=O)c1cccc(-c2cc(-c3ccccc3C#N)c(=O)n(-c3ccccc3)c2)n1 [Example 303, 3-(2-Cyanophenyl)-5-(2-methoxycarbonylpyridin-6-yl)-1-phenyl-1,2-dihydropyridin-2-one] |  | IC50 (AMPA receptor; [4]): 900 nM |
| 600 | O=c1c(-c2nc3ccccc3[nH]2)cc(-c2ccccn2)cn1-c1ccccc1 [Example 190, 3-(1H-Benzimidazol-2-yl)-5-(2-pyridyl)-1-phenyl-1,2-dihydropyridin-2-one] |  |  |
|  | O=c1c(-c2ccccc2-c2cnco2)cc(-c2ccccn2)cn1-c1ccccc1 [Example 392, 3-[2-(5-oxazolyl)phenyl]-1-phenyl-5-(2-pyridyl)-1,2-dihydropyridin-2-one] |  | IC50 (AMPA receptor; [4]): 100 nM |
|  | CN(C)CCOc1ccc(-n2cc(-c3ccccn3)cc(-c3ccccc3Cl)c2=O)cc1 [Example 19, 3-(2-Chlorophenyl)-5-(2-pyridyl)-1-(4-dimethylaminoethoxyphenyl)-1,2-dihydropyridin-2-one] | 80 |  |
|  | Cc1ccc(-c2ccccc2)n1-c1cc(-c2ccccn2)cn(-c2ccccc2)c1=O [Example 327, 3-(2-Methyl-5-phenylpyrrol-1-yl)-5-(2-pyridyl)-1-phenyl-1,2-dihydropyridin-2-one] |  | IC50 (AMPA receptor; [4]): 8000 nM |
| 3300 | O=c1c(Nc2ccccc2)cc(-c2ccccn2)cn1-c1ccccc1 [Example 174, 3-Phenylamino-5-(2-pyridyl)-1-phenyl-1,2-dihydropyridin-2-one] |  |  |
|  | O=c1c(-c2cccnc2)cc(-c2ccccn2)cn1-c1ccccc1 [Example 67, 3-(3-Pyridyl)-5-(2-pyridyl)-1-phenyl-1,2-dihydropyridin-2-one] | 6500 |  |
| 9000 | O=c1c(-c2cccc3cccnc23)cc(-c2ccccn2)cn1-c1ccccc1 [Example 282, 3-(8-Quinolinyl)-5-(2-pyridyl)-1-phenyl-1,2-dihydropyridin-2-one] |  |  |
| 100 | O=c1c(-c2ccccc2Cl)cc(-c2ccccn2)cn1-c1cccc(O)c1 [Example 143, 3-(2-Chlorophenyl)-5-(2-pyridyl)-1-(3-hydroxyphenyl)-1,2-dihydropyridin-2-one] |  |  |
|  | N#Cc1ccccc1-c1cc(-c2ccccn2)c[nH]c1=O [Example 6, 3-(2-Cyanophenyl)-5-(2-pyridyl)-2(1H)-pyridone] | 9300 |  |

| IC50 (AMPA receptor; [3]) [nM] | Compound | IC50 (AMPA receptor; [2]) [nM] | other results |
| --- | --- | --- | --- |
|  | COc1ccccc1-c1cc(-c2ccccc2C#N)c(=O)n(-c2cccnc2)c1 [Example 52, 3-(2-Cyanophenyl)-5-(2-methoxyphenyl)-1-(3-pyridyl)-1,2-dihydropyridin-2-one] | 1100 |  |
|  | CC(C)(C)OC(=O)N1CCC(Cn2cc(-c3ccccn3)cc(-c3ccccc3C#N)c2=O)CC1 [Example 318, 1-[1-(tert-butoxycarbonyl)piperidin-4-yl]methyl-3-(2-cyanophenyl)-5-(2-pyridyl)-1,2-dihydropyridin-2-one] |  | IC50 (AMPA receptor; [4]): 3100 nM |
|  | CCCCNC(=O)Nc1ccc(-c2cc(-c3ccccn3)cn(-c3ccccc3)c2=O)cc1 [Example 308, 3-{4[N-(N′-butylureylenyl)phenyl]}-1-phenyl-5-(2-pyridyl)-1,2-dihydropyridin-2-one] |  | IC50 (AMPA receptor; [4]): 1600 nM |
| 900 | CN(C)c1ccc(-c2cc(-c3ccccn3)cn(-c3ccccc3)c2=O)cc1 [Example 234, 3-(4-Dimethylaminophenyl)-1-phenyl-5-(2-pyridyl)-1,2-dihydropyridin-2-one] |  |  |
|  | O=c1c(-c2nc3ccccc3n2-c2ccccc2)cc(-c2ccccn2)cn1-c1ccccc1 [Example 360, 3-(1-Phenylbenzimidazol-2-yl)-5-(2-pyridyl)-1-phenyl-1,2-dihydropyridin-2-one] |  | IC50 (AMPA receptor; [4]): 3100 nM |
|  | O=c1c(-c2ccccc2)cc(-c2ccccn2)cn1-c1ccc(F)cc1 [Example 98, 3-Phenyl-5-(2-pyridyl)-1-(4-fluorophenyl)-1,2-dihydropyridin-2-one] | 600 |  |
| 4200 | Cc1ccc(C)n1-c1cccc(-c2cc(-c3ccccc3C#N)c(=O)n(-c3ccccc3)c2)n1 [Example 297, 3-(2-Cyanophenyl)-5-[2-(2,6-dimethylpvrrol-1-yl)pyridin-6-yl]-1-phenyl-1,2-dihydropyridin-2-one] |  |  |
| 1200 | N#Cc1ccccc1-c1cc(-c2ccccn2)cn(-c2cccc(OCCN3CCOCC3)c2)c1=O [Example 245, 3-(2-Cyanophenyl)-1-[3-(morpholinoethoxy)phenyl]-5-(2-pyridyl)-1,2-dihydropyridin-2-one] |  |  |
|  | COc1ccc(-c2cc(-c3ccccc3C#N)c(=O)n(-c3ccccc3)c2)cc1OC [Example 43, 3-(2-Cyanophenyl)-5-(3,4-dimethoxyphenyl)-1-phenyl-1,2-dihydropyridin-2-one] | 500 |  |
|  | COc1ccncc1-n1cc(-c2ccccn2)cc(-c2cccnc2F)c1=O [Example 86, 3-(2-Fluoro-3-pyridyl)-5-(2-pyridyl)-1-(4-methoxy-3-pyridyl)-1,2-dihydropyridin-2-one] | 1900 |  |
| 500 | CCN(CC)Cc1cccc(-c2cc(-c3ccccc3C#N)c(=O)n(-c3ccccc3)c2)n1 [Example 157, 3-(2-Cyanophenyl)-5-(6-diethylaminomethyl-2-pyridyl)-1-phenyl-1,2-dihydropyridin-2-one] |  |  |
|  | N#Cc1ccccc1-c1cc(-c2ccccn2)cn(Cc2ccccc2)c1=O [Example 31, 3-(2-Cyanophenyl)-5-(2-pyridyl)-1-benzyl-1,2-dihydropyridin-2-one] | 100 |  |
|  | CCc1ccc(-n2cc(-c3ccccn3)cc(-c3ccccc3C#N)c2=O)cn1 [Example 124, 3-(2-Cyanophenyl)-5-(2-pyridyl)-1-(2-ethylpyridine-5-yl)-1,2-dihydropyridin-2-one] | 700 |  |
| 400 | N#Cc1ccccc1-c1cc(-c2ccccn2)cn(-c2cccc(OCCN3CCCC3)c2)c1=O [Example 241, 3-(2-Cyanophenyl)-1-[3-(pyrrolidinoethoxy)phenyl]-5-(2-pyridyl)-1,2-dihydropyridin-2-one] |  |  |
|  | O=Cc1sccc1-c1cc(-c2ccccn2)cn(-c2cccnc2)c1=O [Example 130, 3-(2-Formylthiophen-3-yl)-5-(2-pyridyl)-1-(3-pyridyl)-1,2-dihydropyridin-2-one] | 900 |  |
|  | COCC1CN(c2cccc(-n3cc(-c4ccccn4)cc(-c4ccccc4C#N)c3=O)c2)C(=O)O1 (stereo not shown) [Example 13, 3-(2-Cyanophenyl)-5-(2-pyridyl)-1-[3-(5-methoxymethyl-2-oxazolidinon-3-yl)-phenyl]-1,2-dihydropyridin-2-one] | 200 |  |
|  | CCN(CC)Cc1sccc1-c1cc(-c2ccccc2C#N)c(=O)n(-c2ccccc2)c1 [Example 29, 3-(2-Cyanophenyl)-5-(2-diethylaminomethylthiophen-3-yl)-1-phenyl-1,2-dihydropyridin-2-one] | 100 |  |
|  | O=c1c(S(=O)(=O)c2ccc(Cl)cc2)cc(-c2ccccn2)cn1-c1ccccc1 [Example 382-B, 3-(4-Chlorobenzenesulfonyl)-5-(2-pyridyl)-1-phenyl-1,2-dihydropyridin-2-one] |  | IC50 (AMPA receptor; [4]): 2300 nM |

| Compound | IC50 (AMPA receptor; [3]) [nM] | IC50 (AMPA receptor; [2]) [nM] | other results |
| --- | --- | --- | --- |
| O=c1c(-c2ccccc2[N+](=O)[O-])cc(-c2ccccn2)cn1-c1ccccc1 [Example 270, 3-(2-Nitrophenyl)-1-phenyl-5-(2-pyridyl)-1,2-dihydropyridin-2-one] | 140 |  | anticonvulsant action (time-extending action until the convulsion takes place) [1]: significant anticonvulsant action |
| Cc1cccc(-c2cc(-c3ccccc3C#N)c(=O)n(-c3ccccc3)c2)n1 [Example 195, 3-(2-Cyanophenyl)-5-(6-methylpyridin-2-yl)-1-phenyl-1,2-dihydropyridin-2-one] | 200 |  |  |
